Literature values in patent US7202233B2, “Alprazolam inclusion complexes and pharmaceutical compositions thereof” (Farmarc Nederland BV, priority 2000, dated 2007).

Columns and labels:
[1] = sublingual use of commercially available oral tablet dosage forms
[2] = 20% solution of 2-hydroxypropyl-beta-cyclodextrin
[3] = tablet formulation, conventional orogastric administration
[4] = above pH 6; FIG. 1 (Cho et al. 1983)

For `Cc1nnc2n1-c1ccc(Cl)cc1C(c1ccccc1)=NC2` [alprazolam, 8-chloro-1-methyl-6-phenyl-4H-[1,2,4]triazolo[4,3a][1,4]benzodiazepine], the “speed of onset, sublingual versus conventional orogastric administration” value [1] is given as “no significant benefit”, the solubility enhancement [2] is given as 16 fold and the “time of maximum plasma levels post-dose” value [3] is given as 0.7 to 1.8 h. The “presence of ring-open form as a function of pH” value [4] was “no ring-open alprazolam above pH 6”.
